Source: ChEMBL document CHEMBL1201862, “PubChem BioAssay data set” (2004)
Calls of active or inactive are those of the source.

Experiments:
NADPH oxidase 1 = target: T1, NADPH oxidase 1 (Homo sapiens, UniProt Q9Y5S8); assay: Late-stage luminescence-based cell-based dose response assay to identify inhibitors of NADPH oxidase 1 (NOX1): Purchased analogs 2.; assay type: functional
T1 sequence (Q9Y5S8 whole entry): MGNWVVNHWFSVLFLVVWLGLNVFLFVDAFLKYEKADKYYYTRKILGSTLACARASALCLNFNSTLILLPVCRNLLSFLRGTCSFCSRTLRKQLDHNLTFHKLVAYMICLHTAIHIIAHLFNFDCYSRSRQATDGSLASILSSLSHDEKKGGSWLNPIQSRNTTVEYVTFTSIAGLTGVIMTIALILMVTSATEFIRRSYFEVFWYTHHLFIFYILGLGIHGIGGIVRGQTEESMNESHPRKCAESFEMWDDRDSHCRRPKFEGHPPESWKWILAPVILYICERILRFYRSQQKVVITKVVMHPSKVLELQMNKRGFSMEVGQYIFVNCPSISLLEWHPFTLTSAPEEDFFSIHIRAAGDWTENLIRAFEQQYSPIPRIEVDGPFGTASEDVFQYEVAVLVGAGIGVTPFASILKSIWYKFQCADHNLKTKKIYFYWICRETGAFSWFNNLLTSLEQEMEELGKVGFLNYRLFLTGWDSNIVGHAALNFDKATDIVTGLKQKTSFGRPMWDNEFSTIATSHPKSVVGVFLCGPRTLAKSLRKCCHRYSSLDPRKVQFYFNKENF

[1] = target: Voltage-gated inwardly rectifying potassium channel KCNH2 (Homo sapiens, UniProt Q12809); assay: hERG protection from proarrhythmic block, potency, dose response, cell-based, thallium flux (AID 2121); assay type: ADME
CHO-K1 = assay: (§1) Counterscreen for antagonists of the orexin 1 receptor (OX1R; HCRTR1): Homogeneous time resolved fluorescence (HTRF)-based cell-based dose response assay to identify antagonists of the parental CHO-K1 cell line. [Related pubchem assays (depositor defined):AID434989, AID435008, AID463079, AID485270, AID492963, AID492964, AID492965, AID493232, AID504699, AID504701]; assay type: functional; details: Cricetulus griseus
[2] = as §1, with “Fluorescence-based” for “Homogeneous time resolved fluorescence (HTRF)-based”, “cell-based high throughput” for “cell-based”, “CHO” for “CHO-K1”; assay type: functional
[3] = target: T2, Orexin/Hypocretin receptor type 1 (Homo sapiens, UniProt O43613); assay: Homogeneous Time Resolved Fluorescence (HTRF)-based cell-based high throughput dose response assay for antagonists of the orexin 1 receptor (OX1R; HCRTR1). [Related pubchem assays (depositor defined):AID434989, AID435008, AID463079, AID485270, AID492963, AID492964, AID492965, AID493232, AID504717, AID504718]; assay type: functional
T2 sequence (O43613 whole entry): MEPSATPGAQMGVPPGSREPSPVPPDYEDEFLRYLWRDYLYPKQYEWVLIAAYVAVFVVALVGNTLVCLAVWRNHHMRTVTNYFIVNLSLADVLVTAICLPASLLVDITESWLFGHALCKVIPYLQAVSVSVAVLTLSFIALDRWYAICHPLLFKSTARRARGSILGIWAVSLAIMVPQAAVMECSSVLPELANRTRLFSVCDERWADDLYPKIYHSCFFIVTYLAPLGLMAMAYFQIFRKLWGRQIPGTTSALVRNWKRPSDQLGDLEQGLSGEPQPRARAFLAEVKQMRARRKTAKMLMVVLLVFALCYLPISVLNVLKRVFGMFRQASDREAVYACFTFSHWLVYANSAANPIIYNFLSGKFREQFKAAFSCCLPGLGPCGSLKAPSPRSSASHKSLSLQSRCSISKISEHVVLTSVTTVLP

[4] = target: T2, Orexin/Hypocretin receptor type 1; assay: Fluorescence-based cell-based high throughput dose response assay for antagonists of the orexin 1 receptor (OX1R; HCRTR1). [Related pubchem assays (depositor defined):AID434989, AID435008, AID463079, AID485270, AID492963, AID492964, AID492965, AID493232, AID504717, AID504718]; assay type: functional
Orexin receptor type 2 [5] = target: T3, Orexin receptor type 2 (Homo sapiens, UniProt O43614); assay: Counterscreen assay for antagonists of the orexin 1 receptor (OX1R; HCRTR1): Fluorescence-based cell-based dose response assay for antagonists of the orexin 2 receptor (OX2R; HCRTR2), run by assay provider.; assay type: functional
T3 sequence (O43614 whole entry): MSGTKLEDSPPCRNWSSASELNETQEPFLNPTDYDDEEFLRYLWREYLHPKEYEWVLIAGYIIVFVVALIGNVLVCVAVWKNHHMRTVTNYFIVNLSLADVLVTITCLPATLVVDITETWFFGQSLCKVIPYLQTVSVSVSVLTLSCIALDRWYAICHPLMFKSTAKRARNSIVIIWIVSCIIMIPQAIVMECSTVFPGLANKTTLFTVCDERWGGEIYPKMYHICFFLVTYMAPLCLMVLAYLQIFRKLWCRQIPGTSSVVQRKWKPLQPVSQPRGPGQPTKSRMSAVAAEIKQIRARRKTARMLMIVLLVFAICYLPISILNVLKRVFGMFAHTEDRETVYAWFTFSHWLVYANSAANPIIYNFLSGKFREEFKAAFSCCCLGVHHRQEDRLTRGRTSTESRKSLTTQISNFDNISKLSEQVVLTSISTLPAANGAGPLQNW

Orexin receptor type 2 [6] = target: T3, Orexin receptor type 2; assay: Counterscreen assay for antagonists of the orexin 1 receptor (OX1R; HCRTR1): Homogeneous Time Resolved Fluorescence (HTRF)-based cell-based dose response assay for antagonists of the orexin 2 receptor (OX2R; HCRTR2), run by assay provider.; assay type: functional
Ephrin type-A receptor 4 = Ephrin type-A receptor 4 (Mus musculus, UniProt Q03137); assay: inhibitors of EphA4 binding to KYL peptide, primary screen, biochemical, colorimetric, mouse EphA4 (AID 689); assay type: functional
[7] = Luminescent dose response cell-based high throughput screening assay for inhibitors of the Janus kinase 2 mutant JAK2V617F. [Related pubchem assays: 1446 (Primary screen.), 1521 (Confirmation assay.), 1486 (Counter screen.)]; assay type: functional
BJ [8] = assay: cytotoxicity toward BJ-TERT fibroblasts, dose response, cell-based, RAS-independent, luminescence (AID 1933); assay type: functional; details: Homo sapiens
BJ [9] = assay: cells; assay type: functional, cell-based; details: Homo sapiens
BJ [10] = assay: cytotoxicity toward BJ-TERT-LT-ST fibroblasts, dose response, cell-based, RAS-independent, luminescence (AID 1935); assay type: functional; details: Homo sapiens;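 further: BJ fibroblasts immortalized with TERT plus LT and ST oncogenes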
[11] = cytotoxicity toward DRD oncogenic fibroblasts, dose response, cell-based, non-viral oncogenic, luminescence (AID 1934); assay type: functional; details: Homo sapiens
Jurkat = assay: antigen receptor-induced NF-kB inhibitors, dose response, Jurkat, luciferase reporter, luminescence, B- and T-cell (AID 489004); assay type: functional, cell-based; details: Homo sapiens;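 further: NF-kB luciferase reporter Jurkat cells stimulated with PMA plus ionomycin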
[12] = cytotoxicity in HEK-293T NF-kB-Luc cells, dose response, cytotoxicity control for B/T-cell NF-kB inhibitor project, cell-based, uHTS hits (AID 489019); assay type: functional;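 further: IC50 reflects cytotoxicity as loss of cell viability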
BJ [13] = assay: cytotoxicity toward Ras-transformed BJeLR fibroblasts, dose response, cell-based, alamar blue fluorescence, cherrypicked samples (AID 2631); assay type: functional; details: Homo sapiens;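 further: confirmatory dose-response assay in RAS-dependent BJ fibroblasts engineered with TERT, LT and ST, with cytotoxicity read by fluorescence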
Paired box protein Pax-8 = Paired box protein Pax-8 (Homo sapiens, UniProt Q06710); assay: inhibitors of PAX8-driven TPO luciferase reporter, dose response, RMG-I cells, cherry-pick (AID 687027); assay type: functional, cell-based;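 further: luciferase reporter driven by Pax8 target thyroperoxidase promoter measured by SteadyGlo luminescence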
[14] = non-specific cell cytotoxicity, dose response, cytotoxicity control for PAX8 inhibitor project, plate reader, dry powder samples (AID 743021); assay type: functional, cell-based
[15] = M. tuberculosis growth inhibition, HTS (AID 449762); assay type: functional
[16] = microbe, parasite or virus in culture; assay type: functional; details: Mycobacterium tuberculosis
Large T antigen = Large T antigen (Simian virus 40, UniProt P03070); assay type: functional, Betapolyomavirus macacae;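 further: Confirmatory-stage PubChem screen for compounds that inhibit SV40 T antigen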
[17] = target: T4, Mannose-6-phosphate isomerase (Homo sapiens, UniProt P34949); assay: inhibitors of human PMI, primary screen, biochemical, fluorescence intensity, coupled assay (AID 1209)
T4 sequence (P34949 whole entry): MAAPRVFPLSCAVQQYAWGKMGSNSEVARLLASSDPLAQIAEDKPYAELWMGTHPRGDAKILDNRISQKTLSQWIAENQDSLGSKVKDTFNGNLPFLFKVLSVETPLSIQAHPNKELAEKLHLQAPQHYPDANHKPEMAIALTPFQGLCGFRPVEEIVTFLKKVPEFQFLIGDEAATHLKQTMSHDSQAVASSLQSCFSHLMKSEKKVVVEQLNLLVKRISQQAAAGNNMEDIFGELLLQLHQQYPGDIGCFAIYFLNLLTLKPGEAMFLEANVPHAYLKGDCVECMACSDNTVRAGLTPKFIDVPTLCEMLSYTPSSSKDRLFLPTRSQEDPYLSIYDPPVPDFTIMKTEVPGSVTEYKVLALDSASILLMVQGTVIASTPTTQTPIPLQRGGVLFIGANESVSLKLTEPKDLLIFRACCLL

[18] = target: T4, Mannose-6-phosphate isomerase; assay: human PMI inhibitors, high substrate, primary screen, biochemical, fluorescence intensity, high mannose 6-phosphate (AID 1220)
[19] = inhibitors of Vif binding to APOBEC3G peptide, primary screen, biochemical, TR-FRET, GST-Vif 1-94, biotin-A3G peptide, dose response retest (AID 1117319); assay type: functional;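 further: TR-FRET signal of purified GST-Vif binding a biotinylated A3G peptide; inhibitors lower the FRET signal by blocking Vif and A3G binding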
[20] = Vero cell cytotoxicity, dose response, cytotoxicity control for Vif-APOBEC3G degradation inhibitor project, Vero cells (AID 1117358); assay type: functional; details: Human immunodeficiency virus 1, Vero

Large T antigen, sequence (P03070 whole entry): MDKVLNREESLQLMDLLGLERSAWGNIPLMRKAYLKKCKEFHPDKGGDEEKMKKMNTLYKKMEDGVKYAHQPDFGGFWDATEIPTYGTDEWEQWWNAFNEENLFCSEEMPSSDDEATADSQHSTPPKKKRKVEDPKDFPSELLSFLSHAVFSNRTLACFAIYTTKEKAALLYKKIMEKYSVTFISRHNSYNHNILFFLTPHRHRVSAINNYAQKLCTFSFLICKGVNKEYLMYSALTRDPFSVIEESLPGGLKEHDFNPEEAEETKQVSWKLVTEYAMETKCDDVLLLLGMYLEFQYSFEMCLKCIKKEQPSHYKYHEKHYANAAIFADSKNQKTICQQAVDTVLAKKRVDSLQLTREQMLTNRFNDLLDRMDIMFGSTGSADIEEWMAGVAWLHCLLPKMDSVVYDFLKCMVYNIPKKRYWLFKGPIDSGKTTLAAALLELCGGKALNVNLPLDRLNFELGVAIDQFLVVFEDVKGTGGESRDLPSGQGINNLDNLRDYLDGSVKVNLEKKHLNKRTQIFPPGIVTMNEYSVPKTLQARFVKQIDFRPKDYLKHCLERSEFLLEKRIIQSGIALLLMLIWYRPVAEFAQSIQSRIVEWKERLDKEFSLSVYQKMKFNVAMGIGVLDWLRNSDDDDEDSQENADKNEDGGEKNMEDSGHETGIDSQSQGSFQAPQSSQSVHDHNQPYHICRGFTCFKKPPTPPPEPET
Voltage-gated inwardly rectifying potassium channel KCNH2, sequence (Q12809 whole entry): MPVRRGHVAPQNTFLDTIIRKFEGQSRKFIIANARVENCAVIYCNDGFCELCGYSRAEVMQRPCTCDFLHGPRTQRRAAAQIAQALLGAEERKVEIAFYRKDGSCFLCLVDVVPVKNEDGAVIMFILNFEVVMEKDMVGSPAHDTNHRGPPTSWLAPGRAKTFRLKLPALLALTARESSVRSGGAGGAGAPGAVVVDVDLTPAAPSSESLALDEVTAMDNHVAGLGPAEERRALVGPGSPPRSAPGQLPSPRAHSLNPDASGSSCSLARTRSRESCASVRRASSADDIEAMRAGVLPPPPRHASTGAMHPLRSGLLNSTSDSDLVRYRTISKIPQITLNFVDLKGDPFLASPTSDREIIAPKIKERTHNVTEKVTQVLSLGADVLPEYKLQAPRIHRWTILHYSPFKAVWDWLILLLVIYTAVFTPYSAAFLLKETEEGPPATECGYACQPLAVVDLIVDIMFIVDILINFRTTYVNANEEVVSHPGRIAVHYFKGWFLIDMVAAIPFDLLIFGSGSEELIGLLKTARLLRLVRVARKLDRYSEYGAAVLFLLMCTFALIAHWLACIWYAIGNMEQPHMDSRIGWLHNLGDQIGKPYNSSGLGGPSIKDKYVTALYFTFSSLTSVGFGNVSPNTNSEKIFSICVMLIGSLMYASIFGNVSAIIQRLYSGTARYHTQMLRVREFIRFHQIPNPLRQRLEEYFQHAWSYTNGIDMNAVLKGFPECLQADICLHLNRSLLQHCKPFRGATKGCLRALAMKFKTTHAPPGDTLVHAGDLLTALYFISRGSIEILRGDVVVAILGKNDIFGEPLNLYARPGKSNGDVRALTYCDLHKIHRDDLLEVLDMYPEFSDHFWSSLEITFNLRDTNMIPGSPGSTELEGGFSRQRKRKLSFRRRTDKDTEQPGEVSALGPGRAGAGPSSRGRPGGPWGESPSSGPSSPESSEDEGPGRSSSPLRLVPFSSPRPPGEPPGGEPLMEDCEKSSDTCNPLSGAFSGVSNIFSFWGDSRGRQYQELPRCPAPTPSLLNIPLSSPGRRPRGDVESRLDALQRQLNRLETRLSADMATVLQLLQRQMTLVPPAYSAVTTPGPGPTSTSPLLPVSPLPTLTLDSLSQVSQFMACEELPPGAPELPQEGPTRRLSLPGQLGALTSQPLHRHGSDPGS
Ephrin type-A receptor 4, sequence (Q03137 whole entry): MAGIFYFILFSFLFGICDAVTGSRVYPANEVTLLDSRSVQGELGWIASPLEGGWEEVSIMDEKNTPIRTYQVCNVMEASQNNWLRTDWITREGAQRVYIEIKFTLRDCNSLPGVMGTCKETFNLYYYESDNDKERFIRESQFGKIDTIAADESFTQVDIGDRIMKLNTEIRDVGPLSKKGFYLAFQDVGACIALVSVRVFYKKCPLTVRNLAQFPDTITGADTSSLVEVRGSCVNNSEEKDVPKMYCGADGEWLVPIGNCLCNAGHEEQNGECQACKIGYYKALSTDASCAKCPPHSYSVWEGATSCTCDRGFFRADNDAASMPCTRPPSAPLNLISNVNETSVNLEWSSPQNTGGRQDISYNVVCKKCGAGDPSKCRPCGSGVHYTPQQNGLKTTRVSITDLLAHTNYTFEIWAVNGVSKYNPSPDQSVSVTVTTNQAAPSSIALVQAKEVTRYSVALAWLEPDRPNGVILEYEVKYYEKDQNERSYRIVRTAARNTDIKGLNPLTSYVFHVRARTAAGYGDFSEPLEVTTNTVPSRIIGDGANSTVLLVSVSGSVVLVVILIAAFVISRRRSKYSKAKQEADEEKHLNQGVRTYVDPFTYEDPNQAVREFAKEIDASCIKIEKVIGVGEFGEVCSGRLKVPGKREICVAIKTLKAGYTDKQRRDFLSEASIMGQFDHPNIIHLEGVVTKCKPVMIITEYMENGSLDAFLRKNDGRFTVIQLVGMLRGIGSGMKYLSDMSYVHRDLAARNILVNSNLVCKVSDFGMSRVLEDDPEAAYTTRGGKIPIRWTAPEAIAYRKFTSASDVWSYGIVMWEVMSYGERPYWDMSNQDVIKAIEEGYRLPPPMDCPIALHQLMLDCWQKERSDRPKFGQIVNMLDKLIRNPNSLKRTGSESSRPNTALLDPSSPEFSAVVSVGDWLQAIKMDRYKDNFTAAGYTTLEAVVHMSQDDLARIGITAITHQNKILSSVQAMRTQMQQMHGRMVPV
Paired box protein Pax-8, sequence (Q06710 whole entry): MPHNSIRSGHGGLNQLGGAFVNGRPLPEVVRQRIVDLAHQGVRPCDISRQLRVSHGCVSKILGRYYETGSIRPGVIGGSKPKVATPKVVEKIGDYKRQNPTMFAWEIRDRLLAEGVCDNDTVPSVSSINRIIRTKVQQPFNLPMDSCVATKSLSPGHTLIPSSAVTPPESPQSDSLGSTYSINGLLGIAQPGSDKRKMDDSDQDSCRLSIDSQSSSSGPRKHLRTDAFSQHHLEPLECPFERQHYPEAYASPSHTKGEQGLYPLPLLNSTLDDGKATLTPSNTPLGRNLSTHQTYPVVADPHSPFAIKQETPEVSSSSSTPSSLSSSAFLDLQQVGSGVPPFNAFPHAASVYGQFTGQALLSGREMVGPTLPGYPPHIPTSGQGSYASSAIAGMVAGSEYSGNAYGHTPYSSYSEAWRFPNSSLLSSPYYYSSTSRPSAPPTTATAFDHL

CC=C(NNc1c(Cl)c(Cl)nc(C(=O)O)c1Cl)c1ccccc1
IC50 (NADPH oxidase 1): > 17 µM (not active)

O=C(NC(=S)Nc1nc(-c2ccccc2)cs1)c1ccco1
EC50 [1]: 0.15 µM (active) | IC50 (CHO-K1): > 66.2 µM (inactive) | IC50 [2]: > 49.7 µM (inactive) | IC50 [3]: 7.37 µM (active) | IC50 [4]: > 49.7 µM (inactive) | IC50 (Orexin receptor type 2 [5]): > 88.8 µM (inactive) | IC50 (Orexin receptor type 2 [6]): > 50 µM (inactive)

Cc1ccc(C)c(OCc2nnc(N)s2)c1
IC50 (Ephrin type-A receptor 4): > 100 µM (not active)

O=C(CCl)/N=c1\sccn1Cc1ccccc1Cl
IC50 [7]: 0.442 µM (active) | EC50 (BJ [8]): 0.403 µM (inconclusive) | EC50 (BJ [9]): 1.33 µM (inconclusive) | EC50 (BJ [10]): 12.1 µM (inconclusive) | EC50 [11]: 0.691 µM (active) | IC50 (Jurkat): 0.31 µM (active) | IC50 [12]: > 80 µM (inactive) | EC50 (BJ [13]): 0.343 µM (active) | AC50 (Paired box protein Pax-8): 1.64 µM (active) | AC50 [14]: 2.74 µM (active)

O=C(N/N=C/c1cn(-c2ccccc2)nc1-c1cccs1)c1ccc(Cl)cc1
IC50 [15]: > 100 µM (active) | CC50 [16]: 23.1 µM (active)

Oc1ccc(/C=N/NP(=S)(c2ccccc2)c2ccccc2)cc1O
IC50 (Large T antigen): 54.9 µM (active) | IC50 [17]: > 50 µM (not active) | IC50 [18]: > 50 µM (not active) | IC50 [19]: > 100 µM (active) | CC50 [20]: > 40 µM (active)
